Test results reported in publication PMC8911025, “Design, Synthesis, and Biological Evaluation of New Azulene-Containing Chalcones” (Materials, 2022).
In brackets after ≈: the same amount, converted by molar mass.

Columns and labels:
S. aureus [1] = tested on: S. aureus; design: method as in PMID 15801857, PMID 19275612, PMID 15142563; details: literature chalcones Nr. Crtl. 1-38 of Table 7; cited from earlier work
S. aureus [2] = experiment: Known antibacterial activity of literature chalcones used for QSAR; assay type: cell-based, Staphylococcus aureus; details: Aexp = 0.1 + log (k/MIC), k = 1.250
Experimental: The QSAR studies were carried out on 48 chalcones, including 10 synthesized azulenyl-chalcones, in order to identify the physicochemical parameter responsible for their antimicrobial activity against Staphylococcus aureus. The geometry optimization of the molecules was completed using PCModel and MOPAC programs. The descriptors were calculated using MOPAC, PRECLAV, and DRAGON software, and the descriptors and QSAR equations were selected using the PRECLAV algorithm. The best QSAR model was chosen based on the statistical parameters such as the square of the correlation coefficient (r^2), the Fischer’s value of significance (F), and the standard error of estimate(s).
Quantitative structure−activity relationship (QSAR) studies involving 38 chalcone derivatives (Table 7) with known antibacterial activity against S. aureus were developed. These studies were based upon observed activity and molecular descriptors. […] Two QSAR studies were performed: (i) one in which all 48 molecules were included in the calibration set and (ii) another with an external validation test. For the latter, 10 molecules were randomly chosen to be part of the validation test, whereas the rest were part of the calibration set. The result of the external validation depends strongly, among other things, on the procedures for the extraction of the calibration and validation sets from the initial database.

Escherichia coli = experiment: Antibiofilm activity (crystal violet, A490); assay type: cell-based; details: biofilm, read-out: MBEC
Experimental: (§1) The effect of the chalcones on the biofilm formation was evaluated after the determination of the MICs. Briefly, the plates were emptied, washed to remove the nonadherent cells, fixed with methanol, and stained with crystal violet. The antibiofilm activity was determined after adding 33% acetic acid solution by measuring the absorbance at 490 nm, and the results are listed in Table 6.
(§2) The azulene-chalcone derivatives were tested for their ability to affect biofilm formation since 80% of the world’s microbial biomass is found in the biofilm state. The most efficient compound was again chalcone 6 with MBEC of 0.156–0.625 mg/mL (Table 6).

Candida parapsilosis = experiment: Antibiofilm activity (crystal violet, A490); assay type: cell-based; details: Lodderomyces parapsilosis, biofilm, read-out: MBEC
Experimental: as §1, §2

Pseudomonas aeruginosa = experiment: Antibiofilm activity (crystal violet, A490); assay type: cell-based; details: biofilm, read-out: MBEC
Experimental: as §1, §2

Staphylococcus aureus = experiment: Antibiofilm activity (crystal violet, A490); assay type: cell-based; details: biofilm, read-out: MBEC
Experimental: as §1, §2

[3] = Cell viability assay (CellTiter Glo); assay type: cell-based; details: human; HEp-2 cells, 48 h, CellTiter Glo; read-out: IC50 (50% cytotoxic concentration)
Experimental: To assess the toxicity of the azulene-containing chalcones, the adherent cell line HEp-2 (American Cell Type Collection [ATCC] CCL-23^TM) was used.
In order to estimate the cytotoxicity of the compounds, HEp-2 cells (American Cell Type Collection (ATCC) CCL-23) were exposed to the azulene-containing chalcones at concentrations of 200, 100, 50, and 25 μg/mL and evaluated using CellTiter Glo kit (Promega, Madison, WI, USA) assay. The results presented in Figure 3 are expressed as viability percentages versus control.

[4] = tested on: Escherichia coli ATCC 25922; experiment: MIC, binary serial dilution in 96-well plates; assay type: cell-based; details: ATCC25922; Escherichia coli ATCC 25922, 24 h at 37 °C
Experimental: (§3) The antimicrobial activity of all compounds was assessed on Gram-positive bacteria (Staphylococcus aureus ATCC 25923), Gram-negative bacteria (Escherichia coli ATCC 25922, Pseudomonas aeruginosa ATCC 27853), and fungi (Candida parapsilosis ATCC 22019) using quantitative binary serial dilution method in 96-well plates. The negative control was represented by wells with culture medium, while positive control was the microbial strain in broth. Briefly, binary serial dilutions of the compounds performed in 100 μL of broth were seeded with microbial inoculum of 10^6 colony forming units (CFU)/mL and incubated for 24 h at 37 °C. […] Due to the fact that the obtained compounds were colored, after the incubation of the 96-well plates, from each well, 10 µL were seeded on agar plates (Plate Count Agar) to determine the inhibitory concentration. The same value of the inhibitory concentration was obtained in repeated experiments.
(§4) The antibacterial effect of the azulene moiety introduced in the chalcone structure was investigated against Gram-positive (Staphylococcus aureus ATCC 25923) and Gram-negative (Escherichia coli ATCC 25922, Pseudomonas aeruginosa ATCC 27853) bacteria, while the antifungal effect was tested against Candida parapsilosis ATCC 22019. To our knowledge, the antibacterial activity of azulene-containing chalcone compounds has not been reported previously; moreover, this is the first investigation of the biological properties of azulene-containing chalcones in general. The results expressed in terms of minimum inhibitory concentration (MIC) were determined by in vitro screening of the antimicrobial properties using the broth microdilution method and are summarized in Table 5.

[5] = tested on: Staphylococcus aureus ATCC 25923; experiment: MIC, binary serial dilution in 96-well plates; assay type: cell-based; details: for MIC: ATCC25923, Staphylococcus aureus ATCC 25923, 24 h at 37 °C; for Aexp: Aexp = 0.1 + log (k/MIC), k = 1.250, compounds synthesized herein
Experimental: as §3, §4

[6] = tested on: Pseudomonas aeruginosa ATCC 27853; experiment: MIC, binary serial dilution in 96-well plates; assay type: cell-based; details: ATCC27853; Pseudomonas aeruginosa ATCC 27853, 24 h at 37 °C
Experimental: as §3, §4

[7] = tested on: Candida parapsilosis ATCC 22019; experiment: MIC (antifungal), binary serial dilution in 96-well plates; assay type: cell-based; details: Lodderomyces parapsilosis, ATCC22019; Candida parapsilosis ATCC 22019, 24 h at 37 °C
Experimental: as §3, §4
We further tested the azulene-containing chalcone compounds for antifungal activity against Candida parapsilosis ATCC 22019.

Row | SMILES | MIC (S. aureus [1]) [µg/mL] | Aexp (S. aureus [2]) | further results
1 | Cc1cc(C)cc(/C=C/C(=O)c2ccc(C(=O)O)cc2)c1 [Nr. Crtl. 25] | 75 (≈ 268 µM) | 1.322 | –
2 | O=C(/C=C/c1cccc(Br)c1)c1ccc(O)cc1 [Nr. Crtl. 33] | 20 (≈ 66 µM) | 1.896 | –
3 | O=C(/C=C/c1ccc(O)c(O)c1)c1ccc(Cl)cc1 [Nr. Crtl. 22] | 125 (≈ 455 µM) | 1.100 | –
4 | O=C(/C=C/c1ccc(Cl)cc1Cl)c1ccc(O)c(F)c1 [Nr. Crtl. 3] | 300 (≈ 964 µM) | 0.720 | –
5 | O=C(/C=C/c1ccc(O)cc1)c1ccccc1 [Nr. Crtl. 16] | 125 (≈ 557 µM) | 1.100 | –
6 | COc1cc(/C=C/C(=O)c2ccccc2)ccc1O [Nr. Crtl. 1] | 500 (≈ 1970 µM) | 0.498 | –
7 | O=C(O)c1ccc(C(=O)/C=C/c2cc(Cl)cc(Cl)c2)cc1 [Nr. Crtl. 29] | 40 (≈ 125 µM) | 1.595 | –
8 | O=C(/C=C/c1ccc(Cl)cc1Cl)c1cc(F)c(O)c(F)c1 [Nr. Crtl. 10] | 150 (≈ 456 µM) | 1.021 | –
9 | O=C(O)c1ccc(C(=O)/C=C/c2ccc(Cl)cc2)cc1 [Nr. Crtl. 12] | 150 (≈ 523 µM) | 1.021 | –
10 | COc1ccc(/C=C/C(=O)c2ccc(Cl)cc2)cc1O [Nr. Crtl. 26] | 62.5 (≈ 216 µM) | 1.401 | –
11 | O=C(O)c1ccc(C(=O)/C=C/c2cccc(Br)c2)cc1 [Nr. Crtl. 24] | 75 (≈ 226 µM) | 1.322 | –
12 | O=C(/C=C/c1ccc2cccccc1-2)c1ccc2ccccc2c1 [Compound 5, (E)-3-(Azulen-1-yl)-1-(naphthalen-2-yl)prop-2-en-1-one] | – | – | minimal effective concentration (Escherichia coli): 625 µg/mL; minimal effective concentration (Candida parapsilosis): 625 µg/mL; minimal effective concentration (Pseudomonas aeruginosa): 1250 µg/mL; minimal effective concentration (Staphylococcus aureus): 2500 µg/mL; IC50 at 48 h [3]: 102 µg/mL (≈ 332 µM); MIC [4]: 625 µg/mL (≈ 2030 µM); MIC [5]: 1250 µg/mL (≈ 4050 µM); Aexp [5]: 0.100; MIC [6]: 625 µg/mL (≈ 2030 µM); MIC [7]: 312 µg/mL (≈ 1010 µM)
13 | O=C(O)c1ccc(C(=O)/C=C/c2ccc(Cl)cc2Cl)cc1 [Nr. Crtl. 30] | 40 (≈ 125 µM) | 1.595 | –
14 | O=C(/C=C/c1cc(Br)c2cccccc1-2)c1ccc2cccccc1-2 [Compound 8, (E)-1-(Azulen-1-yl)-3-(3-bromoazulen-1-yl)prop-2-en-1-one] | – | – | minimal effective concentration (Escherichia coli): 625 µg/mL; minimal effective concentration (Candida parapsilosis): 312 µg/mL; minimal effective concentration (Pseudomonas aeruginosa): 1250 µg/mL; minimal effective concentration (Staphylococcus aureus): 1250 µg/mL; IC50 at 48 h [3]: 93.5 µg/mL (≈ 242 µM); MIC [4]: 625 µg/mL (≈ 1610 µM); MIC [5]: 1250 µg/mL (≈ 3230 µM); Aexp [5]: 0.100; MIC [6]: 625 µg/mL (≈ 1610 µM); MIC [7]: 312 µg/mL (≈ 806 µM)
15 | O=C(/C=C/c1ccccc1O)c1ccc(Cl)cc1 [Nr. Crtl. 19] | 125 (≈ 483 µM) | 1.100 | –
16 | O=C(O)c1ccc(C(=O)/C=C/c2ccccc2C(F)(F)F)cc1 [Nr. Crtl. 4] | 300 (≈ 937 µM) | 0.720 | –
17 | O=C(/C=C/c1ccc(Cl)cc1Cl)c1ccc(O)cc1 [Nr. Crtl. 31] | 20 (≈ 68.2 µM) | 1.896 | –
18 | O=C(/C=C/c1ccc(O)cc1)c1ccc(Cl)cc1 [Nr. Crtl. 21] | 125 (≈ 483 µM) | 1.100 | –
19 | O=C(O)c1ccc(C(=O)/C=C/c2cccc(Cl)c2)cc1 [Nr. Crtl. 23] | 75 (≈ 262 µM) | 1.322 | –
20 | COc1cc(/C=C/C(=O)c2ccc(Cl)cc2)cc(OC)c1O [Nr. Crtl. 2] | 500 (≈ 1570 µM) | 0.498 | –

Row | SMILES | MIC (S. aureus [1]) [µg/mL] | Aexp (S. aureus [2]) | further results
21 | O=C(O)c1ccc(C(=O)/C=C/c2cc(F)cc(F)c2)cc1 [Nr. Crtl. 15] | 150 (≈ 520 µM) | 1.021 | –
22 | COc1cccc(/C=C/C(=O)c2ccc(Cl)cc2)c1O [Nr. Crtl. 8] | 250 (≈ 866 µM) | 0.799 | –
23 | O=C(O)c1ccc(C(=O)/C=C/c2cc(C(F)(F)F)cc(C(F)(F)F)c2)cc1 [Nr. Crtl. 37] | 2 (≈ 5.15 µM) | 2.896 | –
24 | O=C(O)c1ccc(C(=O)/C=C/c2ccc(C(F)(F)F)cc2)cc1 [Nr. Crtl. 11] | 150 (≈ 468 µM) | 1.021 | –
25 | O=C(O)c1ccc(C(=O)/C=C/c2cc(Br)cc(Br)c2)cc1 [Nr. Crtl. 38] | 2 (≈ 4.88 µM) | 2.896 | –
26 | O=C(/C=C/c1ccccc1O)c1ccccc1 [Nr. Crtl. 27] | 62.5 (≈ 279 µM) | 1.401 | –
27 | O=C(/C=C/c1cccc(Cl)c1Cl)c1ccc(O)cc1 [Nr. Crtl. 34] | 15 (≈ 51.2 µM) | 2.021 | –
28 | O=C(/C=C/c1ccc(Cl)cc1Cl)c1ccc(O)cc1F [Nr. Crtl. 32] | 20 (≈ 64.3 µM) | 1.896 | –
29 | O=C(/C=C/c1cccc(O)c1)c1ccc(Cl)cc1 [Nr. Crtl. 20] | 125 (≈ 483 µM) | 1.100 | –
30 | O=C(O)c1ccc(C(=O)/C=C/c2cccc(C(F)(F)F)c2)cc1 [Nr. Crtl. 28] | 40 (≈ 125 µM) | 1.595 | –
31 | COc1cc(/C=C/C(=O)c2ccc(Cl)cc2)ccc1O [Nr. Crtl. 9] | 250 (≈ 866 µM) | 0.799 | –
32 | O=C(/C=C/c1cccc(O)c1)c1ccccc1 [Nr. Crtl. 6] | 250 (≈ 1110 µM) | 0.799 | –
33 | COc1ccc(/C=C/C(=O)c2ccccc2)cc1O [Nr. Crtl. 7] | 250 (≈ 983 µM) | 0.799 | –
34 | O=C(/C=C/c1ccc(O)c(O)c1)c1ccccc1 [Nr. Crtl. 17] | 125 (≈ 520 µM) | 1.100 | –
35 | O=C(O)c1ccc(C(=O)/C=C/c2ccccc2Cl)cc1 [Nr. Crtl. 13] | 150 (≈ 523 µM) | 1.021 | –
36 | O=C(/C=C/c1cc(C(F)(F)F)cc(C(F)(F)F)c1)c1ccc(O)cc1 [Nr. Crtl. 36] | 3 (≈ 8.33 µM) | 2.720 | –
37 | COc1cccc(/C=C/C(=O)c2ccccc2)c1O [Nr. Crtl. 18] | 125 (≈ 492 µM) | 1.100 | –
38 | O=C(O)c1ccc(C(=O)/C=C/c2ccccc2Br)cc1 [Nr. Crtl. 14] | 150 (≈ 453 µM) | 1.021 | –
39 | O=C(O)c1ccc(C(=O)/C=C/c2cccc([N+](=O)[O-])c2)cc1 [Nr. Crtl. 5] | 300 (≈ 1010 µM) | 0.720 | –
40 | O=C(/C=C/c1c(Cl)ccc(Cl)c1Cl)c1ccc(O)cc1 [Nr. Crtl. 35] | 10 (≈ 30.5 µM) | 2.197 | –
